Non-standard residues stand in square brackets, D forms with d. Residues, ends and D or L forms follow the SMILES beside them. *: point of attachment. X1 = COC1(c2ccc(/C=C/C(=O)O)c(OCc3ccc(N*)cc3)c2Cl)OOC12C1CC3CC(C1)CC2C3; Phe(4-Cl) = N[C@@H](Cc1ccc(Cl)cc1)C(=O)O; Igl = N[C@H](C(=O)O)C1Cc2ccccc2C1
How the values were obtained:
[1] = tested on: nontuberculous mycobacteria (NTM); assay: Detection of Mtb versus nontuberculous mycobacteria cells with FLASH probe; conditions: IL values for millions or thousands of cells of each species, 1 h with FLASH
Mtb strain H37Rv = format: cell-based, Mycobacterium tuberculosis; conditions: Mtb H37Rv incubated with FLASH for 1 h
recombinant Hip1 enzyme = target: T1, recombinant Hip1 enzyme (Mycobacterium tuberculosis, UniProt P9WHR3); assay: Hip1 activity measurement with FLASH probe (chemiluminescence); format: biochemical; conditions: total integrated luminescence after 1 h
T1 construct: Recombinant Hip1 was purified as previously described (Lentz et al., 2016); made in house
T1 sequence (P9WHR3 31-520): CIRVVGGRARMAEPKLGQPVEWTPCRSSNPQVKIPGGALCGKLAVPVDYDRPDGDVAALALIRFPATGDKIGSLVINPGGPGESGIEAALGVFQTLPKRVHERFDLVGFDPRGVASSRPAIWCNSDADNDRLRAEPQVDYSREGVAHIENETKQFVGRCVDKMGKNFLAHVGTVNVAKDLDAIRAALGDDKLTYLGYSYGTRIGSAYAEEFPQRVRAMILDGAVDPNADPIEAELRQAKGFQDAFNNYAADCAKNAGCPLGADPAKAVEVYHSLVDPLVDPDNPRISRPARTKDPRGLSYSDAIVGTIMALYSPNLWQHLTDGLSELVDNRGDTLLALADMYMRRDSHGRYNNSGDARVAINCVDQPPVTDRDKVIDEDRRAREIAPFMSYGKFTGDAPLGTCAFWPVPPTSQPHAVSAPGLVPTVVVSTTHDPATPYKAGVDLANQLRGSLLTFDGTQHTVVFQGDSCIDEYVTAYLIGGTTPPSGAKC

Mtb strain mc^26020 = format: cell-based, Mycobacterium tuberculosis; conditions: Mtb mc^26020 incubated with FLASH for 1 h

In the case of `COC1(c2ccc(/C=C/C(=O)O)c(OCc3ccc(NC(=O)[C@H](CC(C)C)NC(=O)[C@H](CCCCN)NC(=O)[C@H](Cc4ccc(Cl)cc4)NC(=O)[C@@H](NC(C)=O)C4Cc5ccccc5C4)cc3)c2Cl)OOC12C1CC3CC(C1)CC2C3` (stereo partly shown) [FLASH] (Ac-[Igl][Phe(4-Cl)]KL-X1), the “sensitivity to Mtb compared to nontuberculous mycobacteria” value [1] is reported as “more sensitive to Mtb compared to common nontuberculous mycobacteria”, the “LOD, lowest number of bacterial cells that can be detected by the probe” value (Mtb strain H37Rv) is reported as ≤ 100,000 cells and the “limit of detection (LOD) of Hip1 enzyme” value (recombinant Hip1 enzyme) is reported as roughly 2 pmol. For the same compound, the “LOD, lowest number of bacterial cells that can be detected by the probe” value (Mtb strain mc^26020) was ≤ 100,000 cells.

Source: patent publication US20230094870A1, “CHEMILU[…] FOR TUBERCULOSIS” (priority 2020, published 2023)
